# Assays:
# [1] = test system: Hepatotoxicity; test: Literature-mined compound from Fourches et al multi-species drug-induced liver injury (DILI) dataset, effect in humans; settings: human
# [2] = test system: Hepatotoxicity; test: Literature-mined compound from Fourches et al multi-species drug-induced liver injury (DILI) dataset, effect in rodents; settings: rodentia
# [3] = test system: Hepatotoxicity; test: Literature-mined compound from Fourches et al multi-species drug-induced liver injury (DILI) dataset, effect in non-rodents
Molecule,Hepatotoxicity ([1]; Liver),Hepatotoxicity ([2]; Liver),Hepatotoxicity ([3]; Liver),Hepatotoxicity [1],Hepatotoxicity [2],Hepatotoxicity [3]
CO[C@H]1/C=C/O[C@@]2(C)Oc3c(C)c(O)c4c(c3C2=O)C2=NC3(CCN(CC(C)C)CC3)NC2=C(NC(=O)/C(C)=C\C=C\[C@H](C)[C@H](O)[C@@H](C)[C@@H](O)[C@@H](C)[C@H](OC(C)=O)[C@@H]1C)C4=O [RIFABUTIN],drug-induced liver injury reported,drug-induced liver injury reported,no drug-induced liver injury reported,,,
CC[C@@H](C(N)=O)N1CCCC1=O,,,,drug-induced liver injury reported,no drug-induced liver injury reported,no drug-induced liver injury reported
CCC(=O)O[C@](Cc1ccccc1)(c1ccccc1)[C@H](C)CN(C)C [PROPOXYPHENE],,,,drug-induced liver injury reported,drug-induced liver injury reported,no drug-induced liver injury reported
C=CC1=C(C(=O)O)N2C(=O)[C@@H](NC(=O)/C(=N\OCC(=O)O)c3csc(N)n3)[C@H]2SC1 [CEFIXIME],,,,drug-induced liver injury reported,no drug-induced liver injury reported,no drug-induced liver injury reported
CCN(CC)Cc1cc(Nc2ccnc3cc(Cl)ccc23)ccc1O.Cl,drug-induced liver injury reported,drug-induced liver injury reported,no drug-induced liver injury reported,,,
CC1CC(OC(=O)C(O)c2ccccc2)CC(C)(C)C1 (stereo unspecified) [CYCLANDELATE],,,,no drug-induced liver injury reported,drug-induced liver injury reported,no drug-induced liver injury reported
C[C@]12C/C(=C/O)C(=O)C[C@@H]1CC[C@@H]1[C@@H]2CC[C@@]2(C)[C@H]1CC[C@]2(C)O [OXYMETHOLONE],,,,drug-induced liver injury reported,no drug-induced liver injury reported,no drug-induced liver injury reported
C[C@H](N)Cc1ccccc1 [DEXTROAMPHETAMINE],,,,no drug-induced liver injury reported,drug-induced liver injury reported,no drug-induced liver injury reported
Cc1cccc(C)c1OCC(=O)N[C@@H](Cc1ccccc1)[C@@H](O)C[C@H](Cc1ccccc1)NC(=O)[C@H](C(C)C)N1CCCNC1=O [LOPINAVIR],,,,drug-induced liver injury reported,no drug-induced liver injury reported,no drug-induced liver injury reported
CN1CC[C@]23c4c5ccc(O)c4O[C@H]2C(=O)CC[C@@]3(O)[C@H]1C5 [OXYMORPHONE],,,,drug-induced liver injury reported,no drug-induced liver injury reported,no drug-induced liver injury reported
N[C@@H](Cc1cc(I)c(Oc2cc(I)c(O)c(I)c2)c(I)c1)C(=O)O [LEVOTHYROXINE],,,,drug-induced liver injury reported,drug-induced liver injury reported,drug-induced liver injury reported
CC[C@H]1OC(=O)[C@H](C)[C@@H](O[C@H]2C[C@@](C)(OC)[C@@H](O)[C@H](C)O2)[C@H](C)[C@@H](O[C@@H]2O[C@H](C)C[C@H](N(C)C)[C@H]2O)[C@](C)(O)C[C@@H](C)C(=O)[C@H](C)[C@@H](O)[C@]1(C)O.O=C(O)[C@H](O)[C@@H](O)[C@H](O[C@@H]1O[C@H](CO)[C@H](O)[C@H](O)[C@H]1O)[C@H](O)CO [ERYTHROMYCIN LACTOBIONATE],,,,drug-induced liver injury reported,no drug-induced liver injury reported,no drug-induced liver injury reported
CCn1cc(C(=O)O)c(=O)c2cc(F)c(N3CCNCC3)nc21 [ENOXACIN],,,,drug-induced liver injury reported,drug-induced liver injury reported,no drug-induced liver injury reported
N[C@@H](C(=O)N[C@@H]1C(=O)N2C(C(=O)O)=C(Cl)CS[C@H]12)c1ccccc1 [CEFACLOR ANHYDROUS],,,,drug-induced liver injury reported,no drug-induced liver injury reported,no drug-induced liver injury reported
DALTEPARIN SODIUM,,,,no drug-induced liver injury reported,drug-induced liver injury reported,no drug-induced liver injury reported
COc1c2occc2cc2ccc(=O)oc12 [METHOXSALEN],,,,drug-induced liver injury reported,drug-induced liver injury reported,no drug-induced liver injury reported
CC/C(=C(\c1ccc(I)cc1)c1ccc(OCCN2CCCC2)cc1)c1ccccc1 [IDOXIFENE],,,,no drug-induced liver injury reported,drug-induced liver injury reported,no drug-induced liver injury reported
CCC1(CCC(C)C)C(=O)NC(=O)NC1=O [AMOBARBITAL],,,,no drug-induced liver injury reported,drug-induced liver injury reported,no drug-induced liver injury reported
POLYETHYLENE GLYCOL,,,,drug-induced liver injury reported,drug-induced liver injury reported,no drug-induced liver injury reported

Molecule,Hepatotoxicity ([1]; Liver),Hepatotoxicity ([2]; Liver),Hepatotoxicity ([3]; Liver),Hepatotoxicity [1],Hepatotoxicity [2],Hepatotoxicity [3]
CC[C@@]1(O)C(=O)OCc2c1cc1n(c2=O)Cc2cc3c([N+](=O)[O-])cccc3nc2-1 [RUBITECAN],,,,drug-induced liver injury reported,no drug-induced liver injury reported,no drug-induced liver injury reported
O=C(O)[C@H]1/C(=C/CO)O[C@@H]2CC(=O)N21 [CLAVULANIC ACID],,,,drug-induced liver injury reported,no drug-induced liver injury reported,no drug-induced liver injury reported
C[C@@H](CN1CC(=O)NC(=O)C1)N1CC(=O)NC(=O)C1 [DEXRAZOXANE],,,,no drug-induced liver injury reported,drug-induced liver injury reported,no drug-induced liver injury reported
COC(=O)[C@@H]1[C@H]2C[C@H]3c4[nH]c5ccccc5c4CCN3C[C@@H]2CC[C@@H]1O [YOHIMBINE],,,,no drug-induced liver injury reported,drug-induced liver injury reported,no drug-induced liver injury reported
C[C@]12C=CC(=O)C=C1CC[C@@H]1[C@@H]2C(=O)C[C@@]2(C)[C@H]1CC[C@]2(O)C(=O)CO [PREDNISONE],,,,drug-induced liver injury reported,no drug-induced liver injury reported,drug-induced liver injury reported
NNc1nnc(NN)c2ccccc12 [DIHYDRALAZINE],,,,drug-induced liver injury reported,drug-induced liver injury reported,no drug-induced liver injury reported
O=NN(CCCl)C(=O)NC1CCCCC1 [LOMUSTINE],,,,drug-induced liver injury reported,drug-induced liver injury reported,no drug-induced liver injury reported
VITAMIN B12,,,,drug-induced liver injury reported,no drug-induced liver injury reported,no drug-induced liver injury reported
NC(=O)OCC(COC(N)=O)c1ccccc1 [FELBAMATE],,,,drug-induced liver injury reported,drug-induced liver injury reported,no drug-induced liver injury reported
Nc1ccc(S(=O)(=O)Nc2ncccn2)cc1 [SULFADIAZINE],drug-induced liver injury reported,no drug-induced liver injury reported,no drug-induced liver injury reported,,,
Nc1ccn(C[C@@H](CO)OCP(=O)(O)O)c(=O)n1.O.O [CIDOFOVIR],,,,drug-induced liver injury reported,no drug-induced liver injury reported,no drug-induced liver injury reported
COc1cc2nc(N3CCN(C(=O)c4ccco4)CC3)nc(N)c2cc1OC [PRAZOSIN],,,,drug-induced liver injury reported,drug-induced liver injury reported,no drug-induced liver injury reported
CN1C(=O)CN=C(c2ccccc2)c2cc(Cl)ccc21 [DIAZEPAM],drug-induced liver injury reported,drug-induced liver injury reported,drug-induced liver injury reported,,,
CC(C)(C)C(=O)OCOP(=O)(COCCn1cnc2c(N)ncnc21)OCOC(=O)C(C)(C)C [ADEFOVIR DIPIVOXIL],,,,drug-induced liver injury reported,drug-induced liver injury reported,no drug-induced liver injury reported
CN(C/C=C/C#CC(C)(C)C)Cc1cccc2ccccc12 [TERBINAFINE],,,,drug-induced liver injury reported,drug-induced liver injury reported,no drug-induced liver injury reported
C[C@H]1O[C@@H](n2cc(F)c(=O)[nH]c2=O)[C@H](O)[C@@H]1O [DOXIFLURIDINE],,,,drug-induced liver injury reported,drug-induced liver injury reported,no drug-induced liver injury reported
CC(C)N(CCC(C(N)=O)(c1ccccc1)c1ccccn1)C(C)C (stereo unspecified) [DISOPYRAMIDE],,,,drug-induced liver injury reported,no drug-induced liver injury reported,no drug-induced liver injury reported
COC(=O)C1=C(C)NC(C)=C(C(=O)OC(C)C)C1c1cccc2nonc12 (stereo unspecified) [ISRADIPINE],,,,drug-induced liver injury reported,no drug-induced liver injury reported,no drug-induced liver injury reported
